Measured values taken from the supplement of paper PMC11208160.
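Also: IS621 recombinase and bridge RNA in Escherichia coli cells.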

Assay: recombinant barcode read abundance after kanamycin selection (control-corrected) (log10(CPM+1)); higher = more efficient recombination; sequences stand for … in AGTGCAGAGAAAATCGGCCAGTTTTCTCTGCCTGCAGTCCGCATGCCGT…AGATTTATGCAGCGGACTGCCTTTCTCCCAAAGTGATAAACCGGACAGTATCATGGACCGGTTTTCCCGGTAATCCGTATTTGCAAGGTTGGTTTCACT; site = the 11-nt target
Method in brief: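 In a pooled screen in E. coli, targets were paired with target-binding loops of the IS621 bridge RNA. Each oligo carried a promoter, a target, a barcode and the first 104 bridge RNA bases driven by J23119, and was Gibson-cloned into a vector holding the remaining 73 bp and a T7-inducible recombinase before co-electroporation with a donor plasmid. Duplicate platings went onto chloramphenicol/ampicillin LB agar as the control or onto chloramphenicol/ampicillin/kanamycin with 0.1 mM IPTG. Recombination efficiency is the averaged, control-corrected count per million of barcodes at recombinant junctions, given as log10(CPM+1).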
For “AGTGTCACTTGGGTTCTAACCTGTTGCGG (site GTGCAACCTAG)”, the “recombinant barcode read abundance (log10)” value was 0.0283.
For “AGTTAATCTTGGGTTCTAACCTGTTGCTT (site AGCTACTCTAA)”, the “recombinant barcode read abundance (log10)” value was 0.0347.
With “AGTTAATCTTGGGTTCTAACCTGTTGCTT (site AGTTAATCTAA)” the “recombinant barcode read abundance (log10)” value was 0.0371.
For “AGTTAGTCTTGGGTTCTAACCTGTTGCGG (site AATTAGTCTCC)”, the “recombinant barcode read abundance (log10)” value was 0.00949.
For “AGTTAGTCTTGGGTTCTAACCTGTTGCGG (site AGTTAGTCTCC)”, the “recombinant barcode read abundance (log10)” value was 1.43.
For “AGTTGCTCTTGGGTTCTAACCTGTTGCCT (site AGTTGCTCTAG)”, the “recombinant barcode read abundance (log10)” value was 0.468.
With “AGTTGCTCTTGGGTTCTAACCTGTTGCCT (site GGTTGCACTAG)” the “recombinant barcode read abundance (log10)” value was 0.268.
With “AGTTGTCCTTGGGTTCTAACCTGTTGCGT (site AGTTGTCCTAA)” the “recombinant barcode read abundance (log10)” value was 0.121.
For “AGTTGTCCTTGGGTTCTAACCTGTTGCGT (site AGTTGTCCTAC)”, the “recombinant barcode read abundance (log10)” value was 1.21.
For “AGTTGTCCTTGGGTTCTAACCTGTTGCGT (site AGTTGTCCTAG)”, the “recombinant barcode read abundance (log10)” value was 0.108.
With “AGTTGTCCTTGGGTTCTAACCTGTTGCGT (site AGTTGTCCTAT)” the “recombinant barcode read abundance (log10)” value was 0.251.
In the case of “AGTTTCACTTGGGTTCTAACCTGTTGCTA (site AGTTTCACTTA)”, the “recombinant barcode read abundance (log10)” value is reported as 0.111.
In the case of “AGTTTCACTTGGGTTCTAACCTGTTGCTA (site GCCAAGGCTAG)”, the “recombinant barcode read abundance (log10)” value is reported as 1.31.
For “AGTTTCGCTTGGGTTCTAACCTGTTGCGG (site AGTATCGCTCC)”, the “recombinant barcode read abundance (log10)” value was 0.215.
With “AGTTTCGCTTGGGTTCTAACCTGTTGCGG (site AGTCTCGCTCC)” the “recombinant barcode read abundance (log10)” value was 0.0337.
With “AGTTTCGCTTGGGTTCTAACCTGTTGCGG (site AGTGTCGCTCC)” the “recombinant barcode read abundance (log10)” value was 0.0655.
For “AGTTTCGCTTGGGTTCTAACCTGTTGCGG (site AGTTTCGCTCC)”, the “recombinant barcode read abundance (log10)” value was 0.0842.
With “ATAAGAGCTTGGGTTCTAACCTGTTGCCT (site ATAAAAGCTAG)” the “recombinant barcode read abundance (log10)” value was 0.385.
In the case of “ATAAGAGCTTGGGTTCTAACCTGTTGCCT (site ATAACAGCTAG)”, the “recombinant barcode read abundance (log10)” value is reported as 0.0202.
For “ATAAGAGCTTGGGTTCTAACCTGTTGCCT (site ATAAGAGCTAG)”, the “recombinant barcode read abundance (log10)” value was 1.15.
With “ATAAGAGCTTGGGTTCTAACCTGTTGCCT (site ATAATAGCTAG)” the “recombinant barcode read abundance (log10)” value was 0.179.
With “ATAAGCTCTTGGGTTCTAACCTGTTGCCG (site ATAAGCTCTCG)” the “recombinant barcode read abundance (log10)” value was 1.92.
In the case of “ATAAGCTCTTGGGTTCTAACCTGTTGCCG (site GAGCAACCTAA)”, the “recombinant barcode read abundance (log10)” value is reported as 0.0688.
For “ATAAGTCCTTGGGTTCTAACCTGTTGCGA (site ACAAGTCCTCC)”, the “recombinant barcode read abundance (log10)” value was 0.869.
With “ATAAGTCCTTGGGTTCTAACCTGTTGCGA (site ATAAGTCCTTC)” the “recombinant barcode read abundance (log10)” value was 2.14.
In the case of “ATAATACCTTGGGTTCTAACCTGTTGCCT (site ACAATACCTAG)”, the “recombinant barcode read abundance (log10)” value is reported as 0.135.
In the case of “ATAATACCTTGGGTTCTAACCTGTTGCCT (site ATAATACCTAG)”, the “recombinant barcode read abundance (log10)” value is reported as 1.4.
For “ATAATAGCTTGGGTTCTAACCTGTTGCCT (site ATAAAAGCTAG)”, the “recombinant barcode read abundance (log10)” value was 0.0804.
In the case of “ATAATAGCTTGGGTTCTAACCTGTTGCCT (site ATAACAGCTAG)”, the “recombinant barcode read abundance (log10)” value is reported as 0.0342.
With “ATAATAGCTTGGGTTCTAACCTGTTGCCT (site ATAAGAGCTAG)” the “recombinant barcode read abundance (log10)” value was 0.0465.
For “ATAATAGCTTGGGTTCTAACCTGTTGCCT (site ATAATAGCTAG)”, the “recombinant barcode read abundance (log10)” value was 1.63.
For “ATACCACCTTGGGTTCTAACCTGTTGCCT (site AAACCACCTAG)”, the “recombinant barcode read abundance (log10)” value was 0.278.
With “ATACCACCTTGGGTTCTAACCTGTTGCCT (site ACACCACCTAG)” the “recombinant barcode read abundance (log10)” value was 1.24.
With “ATACCACCTTGGGTTCTAACCTGTTGCCT (site AGACCACCTAG)” the “recombinant barcode read abundance (log10)” value was 0.431.
In the case of “ATACCACCTTGGGTTCTAACCTGTTGCCT (site ATACCACCTAG)”, the “recombinant barcode read abundance (log10)” value is reported as 1.77.
With “ATACCTCCTTGGGTTCTAACCTGTTGCCT (site ATACCTCCTAG)” the “recombinant barcode read abundance (log10)” value was 1.69.
In the case of “ATACCTCCTTGGGTTCTAACCTGTTGCCT (site CTAACTCCTAG)”, the “recombinant barcode read abundance (log10)” value is reported as 0.148.
In the case of “ATACGTCCTTGGGTTCTAACCTGTTGCAT (site AGACGTCCTAC)”, the “recombinant barcode read abundance (log10)” value is reported as 0.224.
With “ATACGTCCTTGGGTTCTAACCTGTTGCAT (site ATACGTCCTAT)” the “recombinant barcode read abundance (log10)” value was 1.12.
In the case of “ATAGCCACTTGGGTTCTAACCTGTTGCCT (site ATAGCAACTAG)”, the “recombinant barcode read abundance (log10)” value is reported as 0.141.
In the case of “ATAGCCACTTGGGTTCTAACCTGTTGCCT (site ATAGCCACTAG)”, the “recombinant barcode read abundance (log10)” value is reported as 1.02.
In the case of “ATAGCCACTTGGGTTCTAACCTGTTGCCT (site ATAGCGACTAG)”, the “recombinant barcode read abundance (log10)” value is reported as 0.0246.
For “ATAGCCACTTGGGTTCTAACCTGTTGCCT (site ATAGCTACTAG)”, the “recombinant barcode read abundance (log10)” value was 0.0679.
